Experimental data: PMC6269653, “Stability and Antioxidant Activity of Semi-synthetic Derivatives of 4-Nerolidylcatechol” (Molecules, 2012)
Marks after values point to notes of the source that are not given here.

Assays:
[1] = tested on: 3T3L1 mouse embryonic fibroblast cell line; assay: Cellular antioxidant activity (oxidation of DCFH-DA); format: cell-based; design: inhibition of the oxidation of DCFH-DA in 3T3L1 cells: concentration or dose not given beside the values; settings: over the observation period of 60 min
Method: These tests evaluate the reducing effect of a given substance on the radical species formed in situ during these assays leading to a decrease in color versus controls that is measured spectrophotometrically. […] Thus, at a concentration of 250 µM, 4-NC inhibited DPPH• and ABTS+• by 97% and 95%, respectively. Mono-O-substituted 4-NC derivatives 2–5 inhibited ABTS+• by 89–93%. […] The antioxidant activity was also evaluated in mouse embryonic 3T3L1 fibroblasts. In this assay DCFH-DA (2',7'-dichlorofluorescein diacetate) is hydrolyzed by intracellular esterases and then oxidized by reactive oxygen species (ROS) to the fluorescent compound 2'-7'-DCF. An active antioxidant substance can inhibit the transformation of fatty acids to fatty acid hydroperoxides in the cell membranes and thereby inhibit the oxidation of DCFH-DA.
The antioxidant activity of 4-NC and semi-synthetic derivatives of 4-NC was evaluated on the 1st and 30th days after dissolving the substances in DMSO at a concentration of 10 mM and storage in a freezer at −20 °C. This experiment permitted the evaluation of the relative stability of the antioxidant activity of 4-NC, derivatives of 4-NC, BHT and BHA. Thus, cellular antioxidants were evaluated using the mouse embryonic fibroblast 3T3L1 cell line. […] The presence of mono-O or di-O,O substituent groups in the 4-NC derivatives can confer stability relative to 4-NC. Such chemical stability is highly desirable when contemplating the use of such substances in cosmetic and pharmaceutical formulations and foods. Here, 4-NC dissolved in DMSO lost more than 80% of its antioxidant activity after 30 days in the freezer.
Intracellular ROS production was detected using the non-fluorescent cell permeating compound, 2'7'-dichlorofluorescein diacetate (DCF-DA), as described by Wolfe and Liu. DCF-DA is hydrolyzed by intracellular esterases and then oxidized by hydroperoxides into the fluorescent compound, 2'-7'-DCF. 3T3-L1 cells were seeded at a density of 6 × 10^4 cells/well in a 96-well microplate in 100 μL of growth medium. 24 h after seeding, the growth medium was removed and the wells were washed with PBS. Then, a 10 μM solution of DCFH-DA dissolved in Hank’s buffer (100 μL) was added to wells and incubated for 30 min at 37 °C and 5% CO2. The cells were washed first with PBS (100 μL) then EEP (100 µL) and samples having different concentrations were added. The fluorescence was immediately measured at an excitation wavelength of 485 nm and emission wavelength of 520 nm over 60 min at 5 min intervals. Controls with/without DCFH-DA were prepared and subjected to analogous procedures. Quercetin, BHA and BHT were used as positive controls of antioxidant activity.

Plasmodium berghei = settings: oral doses of 1–10 mg/kg/day (2.5–25 µmol/kg/day), 4-day suppressive test; cited from earlier work
[2] = ABTS radical-scavenging activity; format: biochemical; settings: compounds tested at 250 µM; mean ± standard deviation, n = 3
Method: The ABTS assay used herein was based on the method of Re et al. with slight modifications. Substances at concentrations of 250 µM, BHT or BHA were added to dilute ABTS solution and the absorbance at […] was measured. The antioxidant activity was calculated using the equation: % inhibition = 100 × (1 − sample abs/control abs).

[3] = tested on: human leukemia cells (HL-60 and CEM); design: method as in ref 1 = [1]; 1. Pinto A.C.S. Pessoa C.O. Costa-Lotufo L.V. Moraes M.O. Moraes M.E.A. Cavalcanti B.C. Nunomura S.M. Pohlit A.M. In vitro cytotoxicity of Pothomorphe peltata (L.) Miquel (Piperaceae), isolated 4-nero; settings: cited from earlier work
Brine shrimp assay = assay: Brine shrimp assay; design: species or system Artemia franciscana; settings: Artemia franciscana (brine shrimp), in vivo; read-out: Toxicity Brine shrimp (Artemia franciscana) (LC50)
Artemia franciscana = assay: Brine shrimp assay; settings: in vivo
[4] = DPPH radical-scavenging activity; format: biochemical; settings: compounds tested at 250 µM; mean ± standard deviation, n = 3
Method: The measurement of the scavenger activity of DPPH• was carried out according to the method of Molineux with modifications. Substances at 250 µM were added, at an equal volume, to the methanol solution of DPPH• ([…]). After 15 min at room temperature, the absorbance was recorded at 517 nm (sample abs). The experiment was repeated three times. BHT, BHA were used as controls. Values denote percentage of DPPH free radical inhibition. The antioxidant activity was calculated using the equation: % inhibition = 100 × (1 − sample abs/control abs).

## C=CC(C)(CC/C=C(\C)CCC=C(C)C)c1ccc(OC(C)=O)c(OC(C)=O)c1 (stereo not shown) [Compound 7, O,O-diacetyl-4-nerolidylcatechol]
[1]
  inhibition of the oxidation of DCFH-DA in 3T3L1 cells: ≥ 20%
Plasmodium berghei
  in vivo inhibitory activity in P. berghei-infected mice: significant in vivo inhibitory activity
[2]
  ABTS (%) percentage of inhibition: 8.60 ± 0.10 ^b %
[3]
  IC50: 15.5 to 15.6 µM
Brine shrimp assay
  LC50: 83 µM
Artemia franciscana
  cytotoxic activity against Artemia franciscana in the brine shrimp assay: moderately toxic
[4]
  DPPH• (%) percentage of inhibition: 6.36 ± 1.15 ^c %
